For one test, the target named is T1, IDH1/R132C (Homo sapiens, UniProt O75874, R132C).
T1 construct: His-tag (N); made in house; host or cells: E. coli
Briefly: Biochemical assay for IDH1 R132C mutant enzyme (2HG by RapidFire MS). As to conditions: mean ± standard deviation of the mean; 90 minutes reaction. As to the method: IDH1-R132H, IDH1-R132C, IDH2-R172K and IDH2-R140Q mutant enzymes catalyze the conversion of αKG to 2HG. 2HG is analyzed using in-line solid phase extraction and mass spectrometry. This analysis is carried out in a RapidFire® instrument coupled to a 6460 triple quadrupole mass spectrometer (G6460A Agilent).
IDH1 mutant (R132H and R132C) and IDH2 mutant (R140Q and R172K) proteins containing N-terminal His-tag are expressed in E. coli and purified using nickel affinity chromatography. The enzyme assays are carried out in V-bottom 96 well polypropylene plates containing 100 mM Tris-HCl buffer, 1 mM DTT, 0.005% TRITON™ X-100, 120 mM NaCl. For IDH1 R132H, α-ketoglutarate, NADPH and MnCl2 are included at final concentrations of 300 μM, 2.5 μM and 300 μM respectively. For IDH1 R132C, α-ketoglutarate, NADPH and MnCl2 are included at final concentrations of 100 μM, 10 μM and 100 μM respectively. For IDH2 R172K, α-ketoglutarate, NADPH and MnCl2 are included at final concentrations of 150 μM, 10 μM and 150 μM respectively. For IDH2 R140Q, α-ketoglutarate, NADPH and MnCl2 are included at final concentrations of 3000 μM, 10 μM and 100 μM respectively. Final pH=7.0. Test compound dissolved in DMSO stock is diluted in the reaction mix at a final DMSO concentration of 4%. Compounds are tested in dose-response format. The assay is started by addition of enzyme. Enzymes are used at the following final concentrations: IDH1 R132H, 2 nM; IDH1 R132C, 0.5 nM; IDH2 R172K, 1.2 nM; IDH2 R140Q, 1.2 nM. After 90 minutes the reaction is quenched by adding ACN (50:50) containing 3-hydroxy-1,5-pentanedioic-2,2,3,4,4-d5 acid (5d5-3HG) as an internal standard for mass spectrometry analysis and quantitation of reaction product. 2-Hydroxyglutarate (2HG) in quenched samples is separated using strong anionic exchange column chromatography (Phenomenex Strata-X-A SecurityGuard) and analyzed by mass spectrometry in a 6460 triple quadrupole mass spectrometer (G6460A Agilent). The 2HG signal detected is transformed into an analyte concentration using a calibration curve generated using known 2HG concentrations. […] IC50 values are obtained from the individual % inhibition values at different compound concentrations using a 4-parameter equation. These calculations are carried out using Activity Base (IDBS) or Screener (Genedata) data analysis programs.

Another test has as its target T2, IDH1 Wild-Type (Homo sapiens, UniProt O75874).
T2 construct: His-tag (N); made in house; host or cells: E. coli
Description: Biochemical assay for wild-type IDH1 enzyme (αKG by LC-MS). The conditions noted are these: mean ± standard deviation of the mean. As to the method: IDH1 and IDH2 enzymes catalyze the conversion of isocitrate to αKG. Wild-type IDH1 (National Center for Biotechnology Information, Accession: NP_001269316.1) and IDH2 (National Center for Biotechnology Information, Accession: EAX02082.1) proteins containing N-terminal His-tag are expressed in E. coli and purified using nickel affinity chromatography. The enzyme assays are carried out in V-bottom 96 well polypropylene plates containing 100 mM Tris-HCl buffer at pH 7.5, 1 mM DTT, 0.005% TRITON™ X-100, 120 mM NaCl. For the IDH1 wild-type assay isocitrate, NADP^+ and MnCl2 are included at the concentrations of 85 μM, 50 μuM and 20 μM respectively. For the IDH2 wild-type assay isocitrate, NADP^+ and MnCl2 are included at the concentrations of 30 μM, 50 μM and 10 μM respectively. Inhibitors dissolved in a DMSO stock solution are diluted in the reaction mixture at a final DMSO concentration of 4%. The enzyme assay is terminated (quenched) by adding ACN (50:50) containing d6-2-ketopentanedioic acid (d6-αKG) as an internal standard for mass spectrometry analysis. Ten microliters of reaction mixture is combined with 100 μL of water, 50 μL of 1 M O-benzylhydroxylamine in pyridine buffer (8.6% pyridine, pH 5), and 50 μL of 1 M N-(3-dimethylaminopropyl)-N-ethylcarbodiimide hydrochloride (EDC) in pyridine buffer. Following derivatization at room temperature for one hour, samples are extracted with 600 μL of EtOAc. Four hundred […] of the upper layer is removed, dried under heated nitrogen and reconstituted with 100 μL of MeOH/water (1:1). Ten μL of derivatized sample is injected onto an LC-MS system consisting of a Shimadzu Prominence 20A HPLC system and a The Thermo Quantum Ultra™ triple quadrupole mass spectrometer. Analytes are separated on a Waters XBridge™ C18 column (2.1×50 mm, […]) with a flow rate of 0.6 mL/minute. Mobile phase A is 0.1% formic acid in water and mobile phase B is MeOH. The αKG signal detected is transformed into analyte concentration using a calibration curve generated using known αKG concentrations. […] IC50 values are obtained from the individual % inhibition values at different compound concentrations using a 4-parameter equation. These calculations are carried out using Activity Base (IDBS) or Screener (Genedata) data analysis programs.

T2 sequence (O75874 whole entry): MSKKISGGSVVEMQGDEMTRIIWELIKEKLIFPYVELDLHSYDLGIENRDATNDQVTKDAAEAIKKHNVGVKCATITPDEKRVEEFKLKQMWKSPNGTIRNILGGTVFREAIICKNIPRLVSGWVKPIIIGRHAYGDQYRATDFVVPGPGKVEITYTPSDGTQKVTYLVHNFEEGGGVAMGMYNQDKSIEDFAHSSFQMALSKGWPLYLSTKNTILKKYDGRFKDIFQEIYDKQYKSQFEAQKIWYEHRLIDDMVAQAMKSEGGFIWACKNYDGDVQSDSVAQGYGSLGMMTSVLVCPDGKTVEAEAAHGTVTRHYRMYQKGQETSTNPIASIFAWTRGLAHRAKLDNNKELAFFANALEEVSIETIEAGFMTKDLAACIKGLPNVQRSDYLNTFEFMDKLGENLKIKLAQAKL
T1 sequence (O75874 whole entry R132C): as the sequence (O75874 whole entry) above, with R132C counted along it

With `C=CC(=O)N1CCN(Cc2ccc([C@H](C)Nc3ncc4c(n3)N(C)C(=O)OC4)cc2)CC1` [Example 19, 1-Methyl-7-[[(1S)-1-[4-[(4-prop-2-enoylpiperazin-1-yl)methyl]phenyl]ethyl]amino]-4H-pyrimido[4,5-d][1,3]oxazin-2-one], the values for the IC50 against IDH1/R132C and against IDH1 Wild-Type were 1580 ± 340 nM and 14400 ± 200 nM, respectively.
The corresponding values for `C=CC(=O)N1CCN(Cc2ccc([C@H](C)Nc3ncc4c(n3)N(CC(F)F)C(=O)OC4)cc2)CC1` [Example 20, 1-(2,2-difluoroethyl)-7-[[(1S)-1-[4-[(4-prop-2-enoylpiperazin-1-yl)methyl]phenyl]ethyl]amino]-4H-pyrimido[4,5-d][1,3]oxazin-2-one] are 189 ± 33 nM and 4320 ± 370 nM.
Take `C=CC(=O)N1CCN(Cc2ccc([C@H](C)Nc3ncc4c(n3)N(CCF)C(=O)OC4)cc2)CC1` [Example 21, 1-(2-fluoroethyl)-7-[[(1S)-1-[4-[(4-prop-2-enoylpiperazin-1-yl)methyl]phenyl]ethyl]amino]-4H-pyrimido[4,5-d][1,3]oxazin-2-one]: the IC50 against IDH1/R132C was determined as 485 ± 17 nM; at IDH1 Wild-Type, 6580 ± 1010 nM.
The corresponding values for `C=CC(=O)N1CC=C(COc2ccc([C@H](C)Nc3ncc4c(n3)N(CC)C(=O)OC4)cc2)C1` [Example 22, 1-ethyl-7-[[(1S)-1-[4-[(1-prop-2-enoyl-2,5-dihydropyrrol-3-yl)methoxy]phenyl]ethyl]amino]-4H-pyrimido[4,5-d][1,3]oxazin-2-one] are 77.1 ± 10.2 nM and 653 ± 42 nM.

Source of the values: US10253041B2, “7-phenylethylamino-4H-pyrimido[4,5-d][1,3]oxazin-2-one compounds and their use as mutant IDH1 inhibitors” (Eli Lilly and Company, priority 2015, dated 2019).
